This is an account of results in patent US20260125421A1, “ANTIVIRAL COMPOUNDS” (Hoffmann-La Roche Inc., priority 2022, published 2026).

Structures are written as SMILES.

Common to all, as to test: biochemical
The target in experiment [1] is T1, SARS-CoV-2 3CL^pro (Severe acute respiratory syndrome coronavirus 2, UniProt P0DTD1).
T1 construct: […]; made in house; host or cells: Escherichia coli

The target in experiment [2] is T2, HCoV-229E 3CL^pro (Human coronavirus 229E, UniProt P0C6X1).
T2 construct: […]; made in house; host or cells: E. coli BL21 (DE3)

Experiment [3] deals with MERS-CoV 3CL^pro (Middle East respiratory syndrome-related coronavirus, UniProt K9N7C7).
Experiment [4] has as its target SARS-CoV 3CL^pro (Severe acute respiratory syndrome coronavirus, UniProt P0C6X7).

Chain of MERS-CoV 3CL^pro (K9N7C7 3248-3553): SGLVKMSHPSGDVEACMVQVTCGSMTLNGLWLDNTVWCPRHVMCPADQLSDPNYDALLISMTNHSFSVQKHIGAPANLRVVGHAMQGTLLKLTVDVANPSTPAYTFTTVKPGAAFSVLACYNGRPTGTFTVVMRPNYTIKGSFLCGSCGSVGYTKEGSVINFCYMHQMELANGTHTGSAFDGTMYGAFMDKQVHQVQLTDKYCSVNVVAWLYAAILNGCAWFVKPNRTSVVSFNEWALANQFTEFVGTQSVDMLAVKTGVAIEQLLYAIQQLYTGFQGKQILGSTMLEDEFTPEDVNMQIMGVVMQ
T2 sequence (P0C6X1 2966-3267): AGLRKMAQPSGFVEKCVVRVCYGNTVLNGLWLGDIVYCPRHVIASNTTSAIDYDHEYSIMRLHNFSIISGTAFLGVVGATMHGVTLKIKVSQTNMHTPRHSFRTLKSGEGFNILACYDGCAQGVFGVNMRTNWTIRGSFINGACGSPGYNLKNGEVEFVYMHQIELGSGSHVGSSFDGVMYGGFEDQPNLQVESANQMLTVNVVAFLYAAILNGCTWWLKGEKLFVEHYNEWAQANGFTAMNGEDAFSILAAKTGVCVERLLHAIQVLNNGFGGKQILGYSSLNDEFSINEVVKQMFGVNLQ

By IC50 is commonly meant the concentration at which inhibition is half-maximal. Regarding `CC(C)(C)[C@H](NC(=O)[C@@H]1CC1(F)F)C(=O)N1C[C@@H]2CCC[C@@H]2[C@H]1C(=O)NN(C[C@H]1C(=O)N[C@H]2C[C@H]21)C(=O)[C@H](F)Cl` [Example 36, (1S)-N-[(1S)-1-[(3S,3aS,6aR)-3-[[[(2R)-2-chloro-2-fluoro-acetyl]-[[(1S,4S,5S)-3-oxo-2-azabicyclo[3.1.0]hexan-4-yl]methyl]amino]carbamoyl]-3,3a,4,5,6,6a-hexahydro-1H-cyclopenta[c]pyrrole-2-carbonyl]-2,2-dimethyl-propyl]-2,2-difluoro-cyclopropanecarboxamide], the half-maximal inhibitory concentration (IC50) was determined as 13 nM in experiment [1], 54 nM in experiment [2], 174 nM in experiment [3] and 14 nM in experiment [4].
For `CC(C)(C)[C@H](NC(=O)[C@@H]1CC1(F)F)C(=O)N1C[C@@H]2CCC[C@@H]2[C@H]1C(=O)NN(C[C@@H]1C(=O)N[C@@H]2C[C@H]12)C(=O)[C@@H](F)Cl` [Example 40, (1S)-N-[(1S)-1-[(3S,3aS,6aR)-3-[[[(2S)-2-chloro-2-fluoro-acetyl]-[[(1R,4R,5R)-3-oxo-2-azabicyclo[3.1.0]hexan-4-yl]methyl]amino]carbamoyl]-3,3a,4,5,6,6a-hexahydro-1H-cyclopenta[c]pyrrole-2-carbonyl]-2,2-dimethyl-propyl]-2,2-difluoro-cyclopropanecarboxamide], in that order: 64 nM, 257 nM, 538 nM and 122 nM.
For `CC1(C)C[C@H](CN(NC(=O)[C@@H]2[C@@H]3[C@H](CN2C(=O)[C@@H](NC(=O)[C@@H]2CC2(F)F)C(C)(C)C)C3(C)C)C(=O)[C@H](F)Cl)C(=O)N1` [Example 24, (1S)-N-[(1S)-1-[(1R,2S,5S)-2-[[[(2R)-2-chloro-2-fluoro-acetyl]-[[(3R)-5,5-dimethyl-2-oxo-pyrrolidin-3-yl]methyl]amino]carbamoyl]-6,6-dimethyl-3-azabicyclo[3.1.0]hexane-3-carbonyl]-2,2-dimethyl-propyl]-2,2-difluoro-cyclopropanecarboxamide], the IC50 in experiment [1] was 87 nM; in experiment [2], 2250 nM; in experiment [3] it was 1400 nM; in experiment [4], 177 nM.
